Test results from US4618682A, “2-amino-4,5-dihydro-1H-imidazole-1-carboxanilides” (McNeilab, Inc., priority 1985, dated 1986).
Where a name gives a salt, the structure may show the parent alone.

Experiments:
[1] = test system: Spontaneously hypertensive rat; test: Rodent Antihypertensive Screen (arterial pressure and heart rate, aortic cannula); type: in vivo, adult spontaneously hypertensive rats (Charles River); conditions: for Duration / Effect on heart rate / Max. decr. in MAP: spontaneously hypertensive rat; for antihypertensive activity compared with corresponding rearranged N-aryl-N'-(4,5-dihydro-1H-imidazol-2-yl) ureas IV: versus corresponding ureas IV
Source text: This test evaluates compounds for effects on arterial pressure and heart rate. In this test, the arterial pressure of adult spontaneously hypertensive rats (Charles River) is monitored directly via an aortic cannula. Rats are anesthetized with an inhalation anesthetic (methoxyflurane). The left carotid artery is isolated and cannulated. The tip of the cannula is advanced to the aorta and the cannula is exteriorized behind the neck at the level of the scapula. Animals are placed in individual cages and allowed to recover from the anesthetic and are kept unrestrained. The arterial cannula is connected to the pressure transducer which is attached to the recorder. Heart rate is determined from the arterial pressure recording. The test compounds are administered either orally (p.o.) by gavage or by intraperitoneal (i.p.) injection. The arterial pressure and heart rate are monitored for a minumum of 24 hours. A test compound is considered to be active as an antihypertensive agent if the mean arterial pressure (MAP) indicates a fall of >15 mm of Hg. Each animal serves as his own control. The results of this test employing at least 3 rats per dose level for each compound and performed with various compounds of the present invention are shown in Table I.

Gastric fistula rat = test: acute gastric fistula rat test (antisecretory screen); type: in vivo, Female Sprague-Dawley rats; conditions: for inhibition in vivo at 20 mg/kg: intraduodenal, 20 mg/kg I.D., read-out: % Inhibition of gastric secretion; for ED50: po, 1 hr
Method: The principal antisecretory screen is the acute gastric fistula rat test which is carried out as follows: Female Sprague-Dawley rats are used for this study. The weights range from 125-250 gms; however, weights in any given test have a range of ±20 gms. The rats are fasted 24 hours before testing, water is given ad lib. At the time of fasting, the rats are placed in individual cages with wide mesh bottoms. This eliminates the problem of cannibalism and coprophagia. On the day of testing, the rats are weighed beforehand to determine the weight range and to allow for even distribution. Surgery is carried out under light ether anesthesia. As soon as the rat is anesthetized, its teeth are removed using a small pinch pliers. A midline incision is made on the abdomen about 11/2 cm long and the stomach is exposed. If, at this point, the stomach is filled with food or fecal material, the rat is discarded except for orally administered rats. In this case, the stomach contents are gently squeezed into the duodenum. Using a 4-0 polyester fiber suture, a purse string stitch is placed on the fundic portion of the stomach taking care to avoid any blood vessels in the area. A small nick is made into the stomach in the center of the purse string and a cannula, consisting of a small vinyl tube with a flange on one end, is put into the stomach and the purse string is closed tightly around the flange. Immediately following this, the rat is dosed intraduodenally using a volume of 0.5 ml per 100 gm body weight. The abdominal wall and skin are closed simultaneously with three to four 18 mm wound clips. The rat is then placed in a box containing a longitudinal slit which allows the cannula to hang freely and the rat is able to move about unencumbered. At the completion of the procedure, the time is marked 0 minutes. The rat is allowed to stabilize for 30 minutes, at which time the collection tube is discarded and replaced with a clean collection tube to receive the gastric juice. Only a one-hour collection is made for a screening study. In evaluation studies, one- and two-hour collections are made. At the end of the study, the cannula is pulled out and the rat is sacrificed. The gastric contents collected are drained into a centrifuge tube and centrifuged to pack down the sediment. The volume is read and a 1 ml aliquot of the supernatant is put into a beaker containing distilled water and titrated to pH 7 using 0.01 N NaOH. Mean values are determined for volume, titratable acid and total acid output where volume equals total ml of gastric juice minus sediment, titratable acid (mEq/1) equals amount of 0.01 N NaOH needed to titrate the acid to pH 7 times 10 and total acid output equals titratable acid times volume. Results are reported in percent inhibition over control values. In studies using oral administration, the drugs are dosed in a volume of 1 ml per 100 gm body weight one hour before surgery (pretreatment equals 90 minutes). In subcutaneous studies, the drug may be given immediately after the surgical procedure (pretreatment equals 30 minutes) or after the 30-minute stabilization period when the collection tube is changed (pretreatment time equals 0 minutes). The volume used in subcutaneous studies is 0.2 ml per 100 gm body weight.

SMILES	Duration ([1]; 35 mg/kg p.o.)	Effect on heart rate ([1]; 35 mg/kg p.o.)	Max. decr. in MAP ([1]; 35 mg/kg p.o.)	inhibition in vivo at 20 mg/kg (Gastric fistula rat)	Duration ([1]; 100 mg/kg p.o.)	Effect on heart rate ([1]; 100 mg/kg p.o.)	Max. decr. in MAP ([1]; 100 mg/kg p.o.)	antihypertensive activity compared with corresponding rearranged N-aryl-N'-(4,5-dihydro-1H-imidazol-2-yl) ureas IV [1]	ED50 (Gastric fistula rat)
Cl.NC1=NCCN1C(=O)Nc1cccc(Cl)c1Cl [Example 10, 2-Amino-N-(2,3-dichlorophenyl)-4,5-dihydro-1H-imidazole-1-carboxamide Monohydrochloride]	1.0 h	-66 beats/min	19 mm Hg	70%	–	–	–	–	–
COc1ccc(NC(=O)N2CCN=C2N)cc1OC [Example 4, 2-Amino-N-(3,4-dimethoxyphenyl)-4,5-dihydro-1H-imidazole-1-carboxamide Monohydrochloride Hydrate (4:1)]	–	–	–	–	11 h	-215 beats/min	47 mm Hg	–	–
Cl.NC1=NCCN1C(=O)Nc1ccccc1C(F)(F)F [Example 25, 2-Amino-4,5-dihydro-N-(2-trifluoromethylphenyl)-1H-imidazole-1-carboxamide Monohydrochloride]	0.5 h	-21 beats/min	32 mm Hg	–	–	–	–	–	–
Cc1ccccc1NC(=O)N1CCN=C1N [Example 24, 2-Amino-4,5-dihydro-N-(2-methylphenyl)-1H-imidazole-1-carboxamide Monohydrochloride]	–	–	–	65%	–	–	–	–	–
Cc1cccc(C)c1NC(=O)N1CCN=C1N.Cl [Example 5, 2-Amino-N-(2,6-dimethylphenyl)-4,5-dihydro-1H-imidazole-1-carboxamide Monohydrochloride]	1.0 h	-27 beats/min	23 mm Hg	88%	–	–	–	significantly less antihypertensive activity	–
Cl.NC1=NCCN1C(=O)Nc1cc(Cl)ccc1Cl [Example 7, 2-Amino-N-(2,5-dichlorophenyl)-4,5-dihydro-1H-imidazole-1carboxamide Monohydrochloride]	1.0 h	-48 beats/min	37 mm Hg	–	–	–	–	–	–
NC1=NCCN1C(=O)Nc1c(Br)cccc1Br [Example 16, 2-Amino-4,5-dihydro-N-(2,6-dibromophenyl)-1H-imidazole-1-carboxamide Monohydrochloride]	–	–	–	64%	–	–	–	–	–
Cl.NC1=NCCN1C(=O)Nc1c(Cl)cc(Cl)cc1Cl [Example 12, 2-Amino-4,5-dihydro-N-(2,4,6-trichlorophenyl)-1H-imidazole-1-carboxamide Monohydrochloride]	0.5 h	-39 beats/min	18 mm Hg	97%	–	–	–	–	–
Cl.NC1=NCCN1C(=O)Nc1c(Cl)cccc1Cl [Example 1, 2-Amino-N-(2,6-dichlorophenyl)-4,5-dihydro-1H-imidazole-1-carboxamide Monohydrochloride]	0.5 h	-48 beats/min	32 mm Hg	62%	–	–	–	significantly less antihypertensive activity	–
Cl.NC1=NCCN1C(=O)Nc1ccc(C(F)(F)F)cc1 [Example 14, 2-Amino-4,5-dihydro-N-(4-trifluoromethylphenyl)-1H-imidazole-1-carboxamide Monohydrochloride]	5.0 h	-98 beats/min	50 mm Hg	70%	–	–	–	–	35.5 mg/kg
Cc1ccc(NC(=O)N2CCN=C2N)cc1 [Example 2, 2-Amino-4,5-dihydro-N-(4-methylphenyl)-1H-imidizole-1-carboxamide Monohydrochloride Hydrate (4:1)]	6.0 h	-162 beats/min	54 mm Hg	99%	–	–	–	more potent antihypertensive activity	4.6 mg/kg
NC1=NCCN1C(=O)Nc1ccccc1 [Example 23, 2-Amino-4,5-dihydro-N-phenyl-1H-imidazole-1-carboxamide Monohydrochloride Hydrate (5:3)]	–	–	–	92%	–	–	–	–	–
Cl.NC1=NCCN1C(=O)Nc1ccc(Cl)cc1Cl [Example 9, 2-Amino-N-(2,4-dichlorophenyl)-4,5-dihydro-1H-imidazole-1carboxamide Monohydrochloride]	2.0 h	-49 beats/min	33 mm Hg	71%	–	–	–	–	14.8 mg/kg
COc1cccc(NC(=O)N2CCN=C2N)c1 [Example 19, 2-Amino-4,5-dihydro-N-(3-methoxyphenyl)-1H-imidazole-1carboxamide Monohydrochloride Hydrate (5:1)]	–	–	–	74%	–	–	–	–	–
NC1=NCCN1C(=O)Nc1cc(Cl)cc(Cl)c1 [Example 6, 2-Amino-N-(3,5-dichlorophenyl)-4,5-dihydro-1H-imidazole-1-carboxamide Monohydrochloride Hydrate (16:1)]	1.0 h	-21 beats/min	22 mm Hg	75%	–	–	–	–	22.3 mg/kg
NC1=NCCN1C(=O)Nc1cccc(C(F)(F)F)c1 [Example 26, 2-Amino-4,5-dihydro-N-(3-trifluoromethylphenyl)-1H-imidazole-1-carboxamide Monohydrochloride Hemihydrate]	2.0 h	-71 beats/min	24 mm Hg	99%	–	–	–	–	–
Cc1cccc(Cl)c1NC(=O)N1CCN=C1N [Example 15, 2-Amino-N-(2-chloro-6-methylphenyl)-4,5-dihydro-1H-imidazole-1-carboxamide Monohydrochloride Hydrate (8:1)]	–	–	–	77%	–	–	–	–	–
NC1=NCCN1C(=O)Nc1ccccc1Cl [Example 3, 2-Amino-N-(2-chlorophenyl)-4,5-dihydro-1H-imidazole-1-carboxamide Monohydrochloride]	2.0 h	-77 beats/min	35 mm Hg	82%	–	–	–	–	–
Cl.NC1=NCCN1C(=O)Nc1cccc(Cl)c1.O [Example 11, 2-Amino-N-(3-chlorophenyl)-4,5-dihydro-1H-imidazole-1carboxamide Monohydrochloride Monohydrate]	0.5 h	-26 beats/min	20 mm Hg	77%	–	–	–	–	14.2 mg/kg
CCc1cccc(C)c1NC(=O)N1CCN=C1N.Cl [Example 17, 2-Amino-4,5-dihydro-N-(2-ethyl-6-methylphenyl)-1H-imidazole-1carboxamide Monohydrochloride]	–	–	–	91%	–	–	–	–	24.5 mg/kg
COc1ccc(NC(=O)N2CCN=C2N)cc1.Cl [Example 20, 2-Amino-4,5-dihydro-N-(4-methoxyphenyl)-1H-imidazole-1carboxamide Monohydrochloride]	1.0 h	-38 beats/min	16 mm Hg	–	–	–	–	–	–
